Measurements from PMC9234961 (Journal of Medicinal Chemistry, 2022).
In brackets after ≈: the same amount, converted by molar mass. Several values for one entry are separate records, joined by “and”; a condition that tells them apart may be missing. Equal entries are not always repeated. Where two headings read alike, the source gives them in different places.

Key:
in vitro [1] = assay type: in vitro ADME; conditions: pH 7.4, 10 µM, 16 h at 30 °C
in vitro [2] = assay type: in vitro ADME; conditions: bovine; fraction unbound in OCI-Ly1 DC50 assay medium; read-out: fu,media
NMR solubility assay = assay type: physicochemical; conditions: read-out: Aq. Sol.
Experimental: 4. Supplementary experimental: physicochemical assays
0.5 mM TCEP, 10% D2O) was pipetted into the same well and mixed by up-down pipetting 3 times to create […]
It was then separated by centrifugation (1000 rpm
The plate was then sealed and incubated at room temperature for 20 hours, […]
165 µL of the supernatant was transferred to a 3 mm NMR tube (Bruker, Part No. Z112272) using liquid handler SamplePro Tube SJ S (Bruker). The concentration of the solubilized compound in solubility sample is measured by quantitative 1H-NMR using a single external standard (200 µM caffeine (Sigma, C1778) in PBS (pH 7.4) with 1% DMSO-d6).
The detail of the NMR method is as following: NMR data was collected on a Bruker Avance Neo 600 spectrometer equipped with a 5 mm TCI-CryoProbe. The 1H spectrum was referenced to the internal deuterated solvent. The operating frequency for 1H was 600 MHz. All NMR data were acquired at the […]
1H-NMR spectrum was acquired using a Bruker standard 1D lc1pngppsf2 pulse sequence with 32 scans.
The sweep width was 6.2 ppm with O1P set to 8.8 ppm, and the FID contained 16k time-domain data points. Relaxation delay was set to 20 sec. Water signal was suppressed. […]

[3] = Microsomal clearance assay (MLM); assay type: in vitro ADME; conditions: female, CD1, pH 7.4; mouse liver microsomes, 1 μM compound
Experimental: (§1) 6. Supplementary experimental: in vitro DMPK assays
(§2) 6.1 Microsomal clearance assay
(§3) Microsomal clearance was determined in female CD1 mice, female Sprague–Dawley rats, and mixed gender human liver microsomes obtained from BioIVT (Peterborough, U.K.) following incubation of 1 μM compound at 37 °C in 0.5 mg/mL microsomal protein, 3 mmol/L MgCl2, 1 mmol/L NADPH, 2.5 mmol/L and 10 mmol/L phosphate buffer (pH 7.4) (all purchased from Sigma-Aldrich, Gillingham, U.K). Reactions were started by addition of the cofactors following 10 min preincubation of microsomes with test compound and were terminated at −1, 0, 5, 10, 15, and 30 min with three volumes of ice-cold methanol containing internal standard. Samples were centrifuged at 2800g for 30 min at 4 °C and the supernatants analyzed.
(§4) Control incubations were prepared as above with omission of cofactors. Compound measurements were […]
(§5) separation with a 3 min gradient of 0.1% formic acid in methanol on a Kinetex C18, 50 × 2.1 mm 2.6 μm UPLC column (Phenomenex, Macclesfield, UK). […]

human BCL6 BTB domain [4] = molecular target: T1, human BCL6 BTB domain (Homo sapiens, UniProt P41182); assay: biochemical
Experimental: (§6) Assays were performed in a 384-well black Proxiplate (Perkin Elmer) containing 1 nM Trx-6xHis-BCL6 (in
(§7) anti-6xHis-Terbium cryptate (CisBio Bioassays, France), in assay buffer (25 mM Hepes pH8, 100 mM NaCl,
(§8) 0.05% Tween20, 0.5 mM TCEP, 0.05% bovine serum albumin). Test compounds in DMSO or DMSO alone
(§9) were added to the wells using an ECHO550 acoustic dispenser (Labcyte Inc) to give the appropriate test
(§10) concentration in 0.7% v/v DMSO final. After 2 hours incubation at room temperature the plate was read
(§11) The % inhibition at each concentration was calculated by normalising FRET ratio to the
(§12) appropriate high (DMSO with all reagents) and low (DMSO without BCL6) controls. IC50 values were
(§13) determined using GraphPad Prism 6.0 or Dotmatics (Bishops Stortford, UK) software by fitting the
(§14) normalised data to a sigmoidal four-parameter logistic fit equation.

[5] = Microsomal clearance assay (RLM); assay type: in vitro ADME; conditions: rat liver microsomes, 1 μM compound; for microsomal CLint at 1 μM: female, Sprague-Dawley, pH 7.4
Experimental: as §1, §2, §3, §4, §5

[6] = Microsomal clearance assay (HLM); assay type: in vitro ADME; conditions: human liver microsomes, 1 μM compound; for microsomal CLint at 1 μM: both sexes, pH 7.4
Experimental: as §1, §2, §3, §4, §5

[7] = molecular target: endogenous BCL6 in OCI-Ly1 cells (Homo sapiens, UniProt P41182); assay: cell-based; conditions: for MSD degrader assay [OCI-Ly1] Dmax: mean maximal degradation of BCL6; for degradation of BCL6 (in words): OCI-Ly1 MSD assay
[8] = logD7.4 assay (Chrom log D method); assay type: physicochemical; conditions: pH 7.4, read-out: Measured logD7.4
Experimental: Calibration, validation and in-house compounds were prepared at 1mM in 10% DMSO / 90% Trizma solution (100mM Trizma in 75/25 methanol/water). 3 µL standard injections (with needle wash) of all calibration, validation and in-house samples were made onto a Phenomenex Luna C8 column (3µm, 100 x 4.6 mm, 100A, Phenomenex, Torrence, USA). Chromatographic separation at 30°C was carried out using […]
2 mL/min. The gradient was held at 0:100 water:organic for 0.8 minutes, then returned to the starting conditions of 95:5 water:organic for 0.2 minutes. The column was re-equilibrated for 5 minutes at the […]

OCI-Ly3 = assay: Cell proliferation assay (14 days), OCI-Ly3; conditions: Homo sapiens, OCI-Ly3, 336 h, read-out: OCI-Ly3 GI50
Experimental: (§15) Cells were seeded in 96-well culture plates at a density of 2500 cells/well in RPMI-1640 medium (Sigma-
(§16) Aldrich) supplemented with 10% FBS (Gibco). Compounds were initially dispensed into 96-well U-bottom
(§17) plates using an Echo 550 acoustic dispenser (Labcyte Inc.), then diluted in RPMI-1640 medium and
(§18) transferred onto the cells. Cells were treated with 8 compound concentrations in duplicate, ranging from
(§19) with compound for 14 days, with medium changes at days 3, 7 and 10 carried out as follows: fresh 96-well
(§20) cell culture plates were prepared containing 100 µl medium plus compound at the assay concentrations
(§21) (white plates were used on day 10 to optimise luminescence measurement). Assay plates containing cells
(§22) were vortexed to mix and cell density in one control well was counted using a Coulter Z2 cell counter
(§23) (Beckman Coulter). The volume of medium containing 2500 cells in the control well was calculated and this volume of cells was transferred from every well of the assay plates to the corresponding well of the fresh plates containing compound. After 14 days, CellTiter Glo reagent (Promega) was added to the medium in each well of the assay plate at a ratio of 1:2, mixed on a plate shaker, then incubated at room temperature for 10 minutes. Luminescence was measured using an Envision plate reader (Perkin Elmer) and the relative luminescence at each compound concentration, compared to DMSO alone, was calculated. GI50 were determined using a 4-parameter curve fit in Dotmatics (Bishops Stortford, UK).

BCL6 in Karpas 422 cells = BCL6 in Karpas 422 cells (Homo sapiens, UniProt P41182); assay: cell-based; conditions: read-out: MSD degrader assay [Karpas 422] DC50; Karpas 422 cells
Experimental: 3.2 Mesoscale Discovery (MSD) Degradation Assay
An MSD assay was developed for screening of compounds to determine the degradation of endogenous BCL6 in OCI-Ly1 cells. Briefly, test compounds in DMSO or DMSO alone to a total of 1332.5 nL/well were dispensed to a 96-well Nunc™ Edge 2 plate (ThermoFisher Scientific, 267544) using an Echo® 550 acoustic […]
supplemented with 10% heat-inactivated fetal bovine serum (Sera Plus, PAN Biotech, P30-3702) were […]
incubation at 37 °C + 5% CO2 the plate was centrifuged at 300 x g for 5 minutes. […]
plate washer for all wash and aspiration steps, media was removed and cells were rinsed with PBS, centrifuged as before and PBS removed. Cells were lysed in 50 µL ice-cold lysis buffer at pH 7.4 containing 50 mM Tris-HCl, 150 mM NaCl, 1 % Triton X-100 (v/v), 1 mM PMSF, 1 mM activated sodium vanadate, 1 mM EDTA, phosphatase inhibitors 2 and 3 (1:50 dilution) and protease inhibitor cocktail (1:100 dilution).
20 °C or continuing the assay. A 96-well MSD standard bind plate (MSD, L15XA-3) which was coated overnight with 1 µg/mL anti-human BCL6 goat antibody in PBS (R&D Systems, AF5046) was blocked in 3% BSA in TBS + 0.1% Tween-20 for 1 hour with shaking. Wells were emptied thoroughly before 40 µL/well of lysate was transferred from the cell plate. The MSD plate was incubated at RT for 1 hour with shaking then washed three times with TBS + 0.1 % Tween-20. Antibodies were prepared in TBS + 0.1% Tween-20 + 1% BSA. Anti-human BCL6 rabbit antibody (Cell Signalling Technology, 14895S) was added at 1:100 dilution at 25 µL/well. The plate was incubated and washed as before. MSD Sulfo-tag anti-rabbit detection antibody (MSD, R32AB-1) at 1:1000 dilution at 25 µL/well was added. The plate was incubated and washed as before and MSD Gold read buffer (MSD R92TG) at 1:1 dilution with water at 150 µL/well was added. The plate was read within 10 minutes on the MSD Quickplex reader. The % inhibition at each […]
3.3 Cell proliferation assay
Aldrich) supplemented with 10% FBS (Gibco). […]
transferred onto the cells.
Assay plates containing cells […]

HT = assay: Cell proliferation assay (14 days), HT; conditions: Homo sapiens, HT, 336 h, read-out: HT GI50
Experimental: as §15, §16, §17, §18, §19, §20, §21, §22, §23

human BCL6 BTB domain [9] = molecular target: T1, human BCL6 BTB domain; conditions: for BCL6 TR-FRET pIC50 mean: mean of replicates
Experimental: as §6, §7, §8, §9, §10, §11, §12, §13, §14

Karpas 422 = assay: Cell proliferation assay (14 days), Karpas 422; conditions: Homo sapiens, KARPAS-422, 336 h, read-out: Karpas 422 GI50
Experimental: as §15, §16, §17, §18, §19, §20, §21, §22, §23

SU-DHL-4 = assay: Cell proliferation assay (14 days), SU-DHL-4; conditions: Homo sapiens, SU-DHL-4, 336 h, read-out: SU-DHL-4 GI50
Experimental: as §15, §16, §17, §18, §19, §20, §21, §22, §23

OCI-Ly1 = assay: Cell proliferation assay (14 days), OCI-Ly1; conditions: Homo sapiens, OCI-Ly1, 336 h, read-out: OCI-Ly1 GI50
Experimental: as §15, §16, §17, §18, §19, §20, §21, §22, §23

[10] = BCL6 TR-FRET IC50 individual replicates, single replicate values
[11] = OCI-Ly1, read-out: MSD degrader assay [OCI-LY1] Dmax individual replicates, single replicate values
[12] = OCI-Ly1, read-out: MSD degrader assay [OCI-Ly1] Dmax, mean maximal degradation of BCL6, OCI-Ly1 cells, 2 h
[13] = read-out: MSD degrader assay [OCI-LY1] DC50 individual replicates, single replicate values
[14] = read-out: MSD degrader assay [OCI-Ly1] DC50, geometric mean, OCI-Ly1 cells, 2 h incubation
[15] = read-out: BCL6 TR-FRET IC50, geometric mean, BCOR-AF633 peptide, 2 h incubation
[16] = read-out: BCL6 TR-FRET IC50 individual replicates, single replicate values

SMILES	IC50 (human BCL6 BTB domain [4]; [10])	microsomal CLint at 1 μM [5] [µL/min/mg]	microsomal CLint at 1 μM [6] [µL/min/mg]	Dmax [7, 11] [%]	Dmax [7, 12] [%]	MSD degrader assay [OCI-Ly1] Dmax ([7]; OCI-Ly1 cells, 2 h) [%]	DC50 [7, 13]	DC50 [7, 14]	MSD degrader assay [OCI-LY1] Dmax individual replicates ([7]; single replicate values)	chromatographic logD [8]	microsomal CLint at 0.5 h, 1 µM [3] [µL/min/mg]	BCL6 TR-FRET pIC50 mean (human BCL6 BTB domain [9])	IC50 (human BCL6 BTB domain [9]; [15]) [nM]	IC50 (human BCL6 BTB domain [9]; [16]) [nM]	degradation of BCL6 (in words) [7]	other results
C[C@H]1C[C@@H](O)CN(c2ncc(Cl)c(Nc3ccc4c(c3)n(CCC(C)(C)O)c(=O)n4C)n2)C1 (relative stereo) [compound 5, 5-((5-Chloro-2-(3-hydroxy-5-methylpiperidin-1-yl)pyrimidin-4-yl)amino)-3-(3-hydroxy-3-methylbutyl)-1-methyl-1,3-dihydro-2H-benzo[d]imidazol-2-one]	101 nM and 99.6 nM and 94.3 nM and 86.2 nM	14	28	91	88.8	89	66 nM and 18 nM	35 nM and 34.5 nM	86.653%	2.3	–	–	–	–	–	Papp (in vitro [1]; PAMPA): 23 ×10⁻⁶ cm/s; fraction unbound (in vitro [2]): 0.37; solubility kinetic at 20 h (NMR solubility assay; pH 8, aqueous buffer, kinetic from dmso stock): 40 µM (≈ 19 µg/mL); microsomal CLint at 1 μM [3]: 122 µL/min/mg; IC50 (human BCL6 BTB domain [4]; BCL6 TR-FRET IC50, geometric mean, BCOR-AF633 peptide, 2 h incubation): 95 nM; IC50 (human BCL6 BTB domain [4]; BCL6 TR-FRET pIC50 mean, mean of replicates): 95.1 nM; MSD degrader assay [OCI-LY1] pDC50 mean ([7]; mean of replicates): 7.4626; DC50 ([7]; read-out: Calculated free DC50 [OCI-Ly1], DC50 corrected with fu,media): 12.4 nM
C[C@@H]1C[C@H](O)CN(c2ncc(Cl)c(Nc3ccc4c(c3)c3c(c(=O)n4C)OCC(F)(F)[C@H](C4CC4)N3)n2)C1 [12b CCT373567, (S)-10-((5-Chloro-2-((3S,5R)-3-hydroxy-5-methylpiperidin-1-yl)pyrimidin-4-yl)amino)-2-cyclopropyl-3,3-difluoro-7-methyl-1,2,3,4-tetrahydro-[1,4]oxazepino[2,3-c]quinolin-6(7H)-one]	3.9 nM and 2.4 nM (2×) and 2.6 nM	3	3	< 30	< 30	> 30	> 2000 nM	> 2000 nM	–	2.9	90	8.5554	2.8	2.8	no degradation was seen	PAMPA (pH 7.4) (in vitro [1]): 16 ×10–6 cm s–1; GI50 (OCI-Ly3): 2140 nM; DC50 (BCL6 in Karpas 422 cells): > 2000 nM; GI50 (HT): 362 nM; CLint (RLM) [5]: low clearance; CLint (HLM) [6]: low clearance; GI50 (Karpas 422): 38 nM; GI50 (SU-DHL-4): 820 nM; degradation of BCL6 (in words) ([7]; listed as 12b): nondegrading isomer; GI50 (OCI-Ly1): 83 nM
Cn1c(=O)c2c(c3cc(Nc4nc(N5CCC(F)(F)[C@H](CO)C5)ncc4Cl)ccc31)N[C@@H](C1CC1)C(F)(F)CO2 [9b, (S)-10-((5-Chloro-2-((S)-4,4-difluoro-3-(hydroxymethyl)piperidin-1-yl)pyrimidin-4-yl)amino)-2-cyclopropyl-3,3-difluoro-7-methyl-1,2,3,4-tetrahydro-[1,4]oxazepino[2,3-c]quinolin-6(7H)-one]	3.4 nM and 3.8 nM and 5 nM	–	–	–	44.7	~45	> 2000 nM	> 2000 nM	56.1% and 58.2% and 19.9%	–	129	8.3907	4.1	4.2	partial degradation	solubility kinetic at 20 h (NMR solubility assay; kinetic solubility by NMR in HEPES buffer at pH 8, 4% DMSO): 6.8 µM (≈ 3.96 µg/mL); chromatographic logD ([8]; reversed-phase HPLC on Phenomenex Luna C8 column): 3.2
